Reference: publication PMC11357638 (Molecules, 2024)
Positions count from the first letter of the chain named. Several values for one entry are separate records, joined by “and”; a condition that tells them apart may be missing. Equal entries are not always repeated.

Assays:
[1] = biological target: T1, hTRPV3 T636A mutant (Homo sapiens, UniProt Q8NET8, T636A); experiment: Whole-cell patch-clamp of hTRPV3 T636A mutant in HEK293T cells; type: cell-based
T1 construct: expressed in transfected cells; host or cells: HEK293T
T1 sequence (Q8NET8 1-790 T636A): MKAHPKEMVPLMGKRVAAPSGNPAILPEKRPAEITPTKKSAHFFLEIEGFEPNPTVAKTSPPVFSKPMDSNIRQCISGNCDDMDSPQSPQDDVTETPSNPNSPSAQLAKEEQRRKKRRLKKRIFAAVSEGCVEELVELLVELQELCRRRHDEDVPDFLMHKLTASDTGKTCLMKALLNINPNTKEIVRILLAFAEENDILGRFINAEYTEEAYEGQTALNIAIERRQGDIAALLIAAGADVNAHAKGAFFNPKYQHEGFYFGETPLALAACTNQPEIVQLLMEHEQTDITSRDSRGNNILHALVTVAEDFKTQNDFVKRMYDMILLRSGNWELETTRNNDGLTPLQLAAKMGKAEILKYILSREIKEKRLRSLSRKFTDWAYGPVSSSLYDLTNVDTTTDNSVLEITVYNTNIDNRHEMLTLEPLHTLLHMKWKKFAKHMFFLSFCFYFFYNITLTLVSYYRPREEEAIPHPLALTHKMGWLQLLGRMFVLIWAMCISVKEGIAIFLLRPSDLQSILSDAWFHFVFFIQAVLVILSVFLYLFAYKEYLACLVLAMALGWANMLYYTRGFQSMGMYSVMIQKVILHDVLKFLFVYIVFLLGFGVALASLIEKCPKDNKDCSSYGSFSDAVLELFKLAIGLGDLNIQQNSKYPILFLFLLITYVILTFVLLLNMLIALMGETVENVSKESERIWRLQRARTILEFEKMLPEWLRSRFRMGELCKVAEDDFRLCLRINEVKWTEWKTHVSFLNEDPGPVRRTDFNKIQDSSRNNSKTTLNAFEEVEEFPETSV

[2] = biological target: T2, hTRPV3 single channel (Homo sapiens, UniProt Q8NET8); experiment: Inside-out single-channel recording of hTRPV3; type: cell-based; settings: CA at 500 μM co-applied with 50 μM 2-APB, −60 mV
T2 construct: expressed in transfected cells; host or cells: HEK293T
T2 sequence (Q8NET8 1-790): T1 sequence (Q8NET8 1-790 T636A) with A636T

[3] = biological target: T3, human TRPV1 (hTRPV1) channels (Homo sapiens, UniProt Q8NER1); experiment: Whole-cell patch-clamp selectivity, hTRPV1 in HEK293T cells; type: cell-based; settings: HEK-293T; CA at 1000 μM, current caused by 1 μM capsaicin, mean ± SD, n = 5
T3 construct: expressed in transfected cells; host or cells: HEK293T

[4] = biological target: T4, hTRPV3 F666A mutant (Homo sapiens, UniProt Q8NET8, F666A); experiment: cell-based
T4 sequence (Q8NET8 1-790 F666A): T1 sequence (Q8NET8 1-790 T636A) with A636T, F666A

[5] = biological target: T5, human TRPV3 (hTRPV3) channel (Homo sapiens, UniProt Q8NET8); experiment: Whole-cell patch-clamp of hTRPV3 currents in transfected HEK293T cells; type: cell-based; settings: WT hTRPV3 in HEK293T, whole-cell, activated by 50 μM 2-APB, at +80 mV, Hill fit, mean ± SD; read-out: IC50, inhibition of hTRPV3 currents
T5 construct: expressed in transfected cells; host or cells: HEK293T
T5 sequence (Q8NET8 1-790): T1 sequence (Q8NET8 1-790 T636A) with A636T

[6] = biological target: T6, human TRPV4 (hTRPV4) channels (Homo sapiens, UniProt Q9HBA0); experiment: Whole-cell patch-clamp selectivity, hTRPV4 in HEK293T cells; type: cell-based; settings: HEK-293T; 1000 μM CA, current caused by 0.1 μM GSK1016790A, mean ± SD, n = 5
T6 construct: expressed in transfected cells; host or cells: HEK293T
T6 sequence (Q9HBA0 whole entry): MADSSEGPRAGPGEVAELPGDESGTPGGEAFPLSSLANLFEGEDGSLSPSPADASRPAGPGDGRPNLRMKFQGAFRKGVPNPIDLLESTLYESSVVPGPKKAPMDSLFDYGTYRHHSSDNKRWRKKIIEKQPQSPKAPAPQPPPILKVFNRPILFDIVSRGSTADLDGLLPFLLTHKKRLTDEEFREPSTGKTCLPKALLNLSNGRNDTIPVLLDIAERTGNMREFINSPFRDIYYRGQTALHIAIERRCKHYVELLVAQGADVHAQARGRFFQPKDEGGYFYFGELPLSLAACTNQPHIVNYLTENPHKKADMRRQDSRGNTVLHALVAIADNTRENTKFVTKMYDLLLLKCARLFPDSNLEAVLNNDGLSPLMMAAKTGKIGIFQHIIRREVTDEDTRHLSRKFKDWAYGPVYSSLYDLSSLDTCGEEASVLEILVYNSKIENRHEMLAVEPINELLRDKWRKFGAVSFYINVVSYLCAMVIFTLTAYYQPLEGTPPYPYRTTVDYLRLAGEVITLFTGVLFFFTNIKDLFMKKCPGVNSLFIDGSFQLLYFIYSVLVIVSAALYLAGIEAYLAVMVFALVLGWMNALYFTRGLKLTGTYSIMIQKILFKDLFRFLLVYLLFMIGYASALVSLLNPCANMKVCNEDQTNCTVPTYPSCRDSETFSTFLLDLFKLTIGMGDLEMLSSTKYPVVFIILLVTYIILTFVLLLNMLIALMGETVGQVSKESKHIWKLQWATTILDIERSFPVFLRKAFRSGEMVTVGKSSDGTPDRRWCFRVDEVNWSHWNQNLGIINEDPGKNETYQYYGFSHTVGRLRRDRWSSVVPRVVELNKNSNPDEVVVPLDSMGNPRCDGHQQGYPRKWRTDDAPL

T3 sequence (Q8NER1 whole entry): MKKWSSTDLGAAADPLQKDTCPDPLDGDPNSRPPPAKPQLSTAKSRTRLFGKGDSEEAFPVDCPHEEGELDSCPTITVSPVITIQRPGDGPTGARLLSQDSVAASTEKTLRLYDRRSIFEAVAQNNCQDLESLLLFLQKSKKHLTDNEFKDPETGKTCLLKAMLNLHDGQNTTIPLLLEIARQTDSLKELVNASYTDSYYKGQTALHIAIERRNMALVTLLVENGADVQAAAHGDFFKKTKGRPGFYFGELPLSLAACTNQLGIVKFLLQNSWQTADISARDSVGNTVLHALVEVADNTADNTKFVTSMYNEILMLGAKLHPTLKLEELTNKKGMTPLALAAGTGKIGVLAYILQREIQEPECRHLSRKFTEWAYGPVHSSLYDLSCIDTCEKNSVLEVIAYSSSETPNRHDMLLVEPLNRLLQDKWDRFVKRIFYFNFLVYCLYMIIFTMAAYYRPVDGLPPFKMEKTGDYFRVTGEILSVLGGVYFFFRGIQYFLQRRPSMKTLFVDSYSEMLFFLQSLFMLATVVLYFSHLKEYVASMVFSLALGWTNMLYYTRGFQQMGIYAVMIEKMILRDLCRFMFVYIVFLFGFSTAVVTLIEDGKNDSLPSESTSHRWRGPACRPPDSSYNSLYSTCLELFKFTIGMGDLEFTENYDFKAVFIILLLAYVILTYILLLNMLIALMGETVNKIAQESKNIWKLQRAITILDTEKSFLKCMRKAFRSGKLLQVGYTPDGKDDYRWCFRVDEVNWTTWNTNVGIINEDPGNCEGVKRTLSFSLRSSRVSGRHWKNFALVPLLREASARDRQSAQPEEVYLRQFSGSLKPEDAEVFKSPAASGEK

Q: With O=C(O)/C=C/c1ccc(O)c(O)c1 [CA, caffeic acid] as the compound, how does the IC50 ([1]; T636A hTRPV3, 50 μM 2-APB, +80 mV, Hill fit, read-out: IC50, inhibition of T636A mutant outward currents) read?
A: Its IC50 is > 1000 µM and 1000 µM.

Q: And the “channel current inhibition by 500 μM CA compared to WT” value ([1]; T636A mutant, 50 μM 2-APB, 500 μM CA)?
A: The value was “significantly diminished”.

Q: What about the “open frequency (Freq)” value [2] of the same compound?
A: Its value is 15.96 ± 2.25 Hz.

Q: And the inhibition at 1000 µM [3]?
A: The inhibition at 1000 µM was roughly 20%.

Q: What about the IC50 [4] of the same compound?
A: Its IC50 is 105 ± 4.8 µM.

Q: And the IC50 [5]?
A: Its IC50 is 102 µM and ~100 µM.

Q: And the inhibition at 1000 µM [6]?
A: The inhibition at 1000 µM was roughly 4.6%.
